The values that follow come from ChEMBL document CHEMBL1201862, “PubChem BioAssay data set” (2004).

Each structure is given as a SMILES string.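 Protocol summary: plate cells (96-well), add compound at 5 concentrations, incubate 48 h, interpolate endpoints linearly. GI50 = concentration required for 50% inhibition of growth.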 The source made the active and inactive calls. Cut-off read from the data, not from the text of the source: active = GI50 up to about 1.1 µM and inactive = higher.

Common to all, as to assay: NCI anticancer screen, dose series, 48 h
The subject of assay [1] is A549.
In assay [2] the test system is CAKI-1.
For assay [3], the system named is CCRF-CEM.
Assay [4] has as its system DU-145.
The test system of assay [5] is HCT-15.
The test system of assay [6] is M14.
In assay [7] the test system is MDA-MB-231.
Assay [8] relates to MDA-N.
Assay [9] concerns NCI-H226.
The test system of assay [10] is NCI/ADR-RES.
Assay [11] has as its system OVCAR-5.
In assay [12] the test system is RPMI-8226.
For assay [13], the system named is SK-MEL-28.
Assay [14] concerns SK-OV-3.
The subject of assay [15] is SN12C.
The subject of assay [16] is SNB-75.
Assay [17] concerns SR.
Assay [18] concerns SW-620.
The test system of assay [19] is UACC-257.
The subject of assay [20] is UACC-62.

Regarding `CCC/C(Cl)=N/OC(=O)Nc1cc(C(F)(F)F)ccc1OC`, the GI50 is 19.5 µM (inactive) in [1]; 4.78 µM (inactive) in assay [2]; 1.91 µM (inactive) in assay [3]; 16.3 µM (inactive) in assay [4]; 5.31 µM in assay [5]; 4.4 µM (inactive) in assay [6]. Besides, the GI50 in assay [7] is 13.1 µM (inactive); in assay [8], 12.1 µM (inactive); in assay [9], 15.5 µM (inactive); in [10] it was 17.5 µM (inactive); in assay [11] it was 17.6 µM (inactive); in [12], 2.33 µM (inactive). For the same compound, the GI50 in [13] was 14.5 µM (inactive); in assay [14], 6.17 µM (inactive); in assay [15], 14.3 µM (inactive); in assay [16], 15.1 µM (inactive); in [17], 2.79 µM (inactive); in assay [18], 3.55 µM (inactive). Moreover, the GI50 in assay [19] is 16.5 µM (inactive); in [20] it was 15.2 µM (inactive).

Consider `C(=N/NC1=NCCN1)/c1c2ccccc2c(/C=N\NC2=NCCN2)c2ccccc12`, for which the GI50 was 0.0369 µM (active) in assay [1]; 0.526 µM (active) in assay [2]; 0.0408 µM (active) in assay [3]; 0.0619 µM (active) in [4]; 19.7 µM in assay [5]; 0.171 µM (active) in assay [6]. Further, the GI50 was 6.56 µM (inactive) in assay [7]; 0.113 µM (active) in assay [8]; 0.0966 µM (active) in assay [9]; 88.3 µM (inactive) in [10]; 0.239 µM (active) in assay [11]; 0.0826 µM (active) in assay [12]. Further, the GI50 was 0.259 µM (active) in [13]; 0.177 µM (active) in assay [14]; 0.111 µM (active) in assay [15]; 0.0735 µM (active) in [16]; 0.00879 µM (active) in assay [17]; 0.113 µM (active) in assay [18]. For the same compound, the GI50 in [19] was 0.344 µM (active); in assay [20], 0.0902 µM (active).

As to `Cn1c(=O)oc2cc(C(=S)N3CCCCC3)ccc21`, the GI50 in [2] is > 100 µM (inactive); in [3], 61.8 µM (inactive); in assay [4], > 100 µM (inactive); in assay [5], more than 100 µM; in [6], > 100 µM (inactive); in assay [7], > 100 µM (inactive). Moreover, the GI50 in [8], in [9], in assay [10], in [11], in [12] and in assay [13] was > 100 µM (inactive) each time. The GI50 is > 100 µM (inactive) in assay [14]; > 100 µM (inactive) in assay [15]; > 100 µM (inactive) in assay [16]; 68.4 µM (inactive) in assay [17]; > 100 µM (inactive) in [18]; > 100 µM (inactive) in assay [19]. Besides, the GI50 in assay [20] is > 100 µM (inactive).

For the compound `C=CC(=O)C#Cc1cnc(OC)nc1OC`, the GI50 in assay [1] is 59 µM (inactive); in [2] it was 7.29 µM (inactive); in [3], 0.515 µM (active); in assay [4], 37.2 µM (inactive); in assay [5] it was 10.7 µM; in [6], 14.9 µM (inactive). The GI50 is 19.8 µM (inactive) in assay [7]; 16.4 µM (inactive) in [8]; > 48.5 µM (inactive) in [9]; 31.3 µM (inactive) in assay [10]; 16.1 µM (inactive) in assay [11]; 1.6 µM (inactive) in assay [12]. Also, the GI50 is 10.4 µM (inactive) in assay [13]; > 100 µM (inactive) in [14]; 18.7 µM (inactive) in assay [15]; 12.6 µM (inactive) in assay [16]; 2.49 µM (inactive) in [17]; 4.95 µM (inactive) in assay [18]. Further, the GI50 was 6.38 µM (inactive) in assay [19] and 16.1 µM (inactive) in [20].

In the case of `COc1cc(C(c2cc(OC)c(OC)c(OC)c2)N2C(=O)CCC2C(=O)O)cc(OC)c1OC` (centres undefined), the GI50 was > 100 µM (inactive) in assay [1]; > 100 µM (inactive) in assay [2]; > 100 µM (inactive) in [3]; > 100 µM (inactive) in [4]; more than 100 µM in [5]; > 100 µM (inactive) in assay [6]. For the same compound, the GI50 in assay [7], in [8], in [9], in [10], in [11] and in [12] was > 100 µM (inactive) in each case. Further, the GI50 in assay [13], in assay [14], in assay [15], in assay [16], in assay [17] and in [18] was > 100 µM (inactive) throughout. Moreover, the GI50 in assay [19] and in assay [20] was > 100 µM (inactive) throughout.

On to `CCCCCCCCCc1cc(O)c(O)cc1CCCCCCCCC`, for which the GI50 in assay [1] is > 10 µM (inactive); in assay [2], > 10 µM (inactive); in assay [3], > 10 µM (inactive); in assay [4], > 10 µM (inactive); in [5], more than 10 µM; in assay [6], > 10 µM (inactive). Further, the GI50 in assay [7], in assay [8], in assay [9], in [10], in [11] and in [12] was > 10 µM (inactive) in each case. In addition, the GI50 in [13], in assay [14], in [15], in assay [16], in assay [17] and in assay [18] was > 10 µM (inactive) throughout. Also, the GI50 in assay [19] and in assay [20] was > 10 µM (inactive) each time.

For `CC(=O)Oc1c(C)c2c(c3ccccc13)OC(C)(C)C2`, the GI50 in assay [1] was 18.1 µM (inactive); in assay [2], 24.2 µM (inactive); in [3], 24.7 µM (inactive); in assay [4], 17.3 µM (inactive); in assay [5], 17 µM; in assay [6] it was 16.4 µM (inactive). Further, the GI50 in assay [7] was 23.9 µM (inactive); in assay [8], 12 µM (inactive); in [9], 22 µM (inactive); in [10], 21 µM (inactive); in assay [11], 19.5 µM (inactive); in [12], 15.7 µM (inactive). Besides, the GI50 in assay [13] is 18.8 µM (inactive); in assay [14] it was 30.5 µM (inactive); in [15], 18.6 µM (inactive); in assay [16], 19 µM (inactive); in assay [17] it was 17.7 µM (inactive); in assay [18] it was 19.8 µM (inactive). In addition, the GI50 in assay [19] is 12.2 µM (inactive); in [20] it was 16.3 µM (inactive).

Consider `CCOC(=O)c1nc2ccccc2nc1Nc1ccc(F)cc1`, for which the GI50 is 50.9 µM (inactive) in assay [1]; 39.5 µM (inactive) in assay [2]; > 100 µM (inactive) in assay [3]; 42.2 µM (inactive) in [4]; 57.5 µM in assay [5]; > 100 µM (inactive) in assay [6]. Besides, the GI50 was 8.13 µM (inactive) in assay [7]; > 100 µM (inactive) in [8]; 17.9 µM (inactive) in assay [9]; 16.7 µM (inactive) in assay [10]; > 59.3 µM (inactive) in assay [11]; > 100 µM (inactive) in assay [12]. In addition, the GI50 in assay [13] is > 100 µM (inactive); in assay [14], 11.7 µM (inactive); in [15], 40.6 µM (inactive); in assay [16] it was 3.52 µM (inactive); in assay [17], > 100 µM (inactive); in assay [18], > 100 µM (inactive). Moreover, the GI50 in assay [19] and in [20] was > 100 µM (inactive) throughout.

In the case of `Cc1ccnc2nc(-c3ccc(F)cc3)cc(O)c12`, the GI50 was 54.2 µM (inactive) in assay [1]; 36.2 µM (inactive) in [2]; 75.9 µM (inactive) in assay [3]; > 69.5 µM (inactive) in [4]; 5.08 µM in assay [5]; 28.4 µM (inactive) in assay [6]. For the same compound, the GI50 was > 80.7 µM (inactive) in assay [7]; 3.51 µM (inactive) in assay [8]; 64 µM (inactive) in assay [9]; > 86.3 µM (inactive) in [10]; > 100 µM (inactive) in assay [11]; 35.3 µM (inactive) in assay [12]. Moreover, the GI50 was 77.3 µM (inactive) in [13]; > 86.9 µM (inactive) in assay [14]; > 100 µM (inactive) in assay [15]; 29.6 µM (inactive) in assay [16]; 3.82 µM (inactive) in [17]; 33.7 µM (inactive) in assay [18]. Also, the GI50 in [19] was > 92 µM (inactive); in [20] it was 16 µM (inactive).

For `COc1ccc2[nH]c3c(C)c4c(c(C)c3c2c1)CN(C)C=C4`, the GI50 in assay [1] was 0.873 µM (active); in assay [2] it was 9.23 µM (inactive); in [3], 3.76 µM (inactive); in [4], 5.37 µM (inactive); in assay [5], 23.4 µM; in assay [6] it was 8.77 µM (inactive). The GI50 in assay [7] is 12.1 µM (inactive); in assay [8], 15 µM (inactive); in assay [9], 0.267 µM (active); in assay [10], 91.8 µM (inactive); in assay [11] it was 7.57 µM (inactive); in assay [12], 7.24 µM (inactive). In addition, the GI50 in assay [13] is 3.44 µM (inactive); in assay [14], 7.23 µM (inactive); in [15] it was 0.164 µM (active); in assay [16], 0.226 µM (active); in [17] it was 0.526 µM (active); in assay [18], 1.35 µM (inactive). Moreover, the GI50 in assay [19] is 2.68 µM (inactive); in [20], 3.3 µM (inactive).
